Source: patent publication US10131652B2, “Pyrimidinyloxy benzene derivatives as herbicides” (E. I. DU PONT DE NEMOURS AND COMPANY, priority 2014, dated 2018)
Where two headings read alike, the source gives them in different places.

Legend:
Type in all cases: in vivo
corn (Zea mays) [1] = assay: Test D pre-/postemergence plant response; conditions: Zea mays, pre-emergence, Preemergence
From the text: (§1) Seeds of plant species selected from blackgrass (Alopecurus myosuroides), Italian ryegrass (Lolium multiflorum), winter wheat (Triticum aestivum), galium (catchweed bedstraw, Galium aparine), corn (Zea mays), large (Lg) crabgrass (Digitaria sanguinalis), giant foxtail (Setaria faberii), johnsongrass (Sorghum halepense), lambsquarters (Chenopodium album), morningglory (Ipomoea coccinea), yellow nutsedge (Cyperus esculentus), pigweed (Amaranthus retroflexus), ragweed (common ragweed, Ambrosia elatior), soybean (Glycine max), bamyardgrass (Echinochloa crus-galli), oilseed rape (Brassica napus), waterhemp (common waterhemp, Amaranthus rudis), and velvetleaf (Abutilon theophrasti) were planted into a blend of loam soil and sand and treated preemergence with test chemicals formulated in a non-phytotoxic solvent mixture which included a surfactant. At the same time, plants selected from these crop and weed species and also kochia (Kochia scoparia), wild oat (Avena fatua), and chickweed (common chickweed, Stellaria media) were planted in pots containing Redi-Earth® planting medium (Scotts Company, 14111 Scottslawn Road, Marysville, Ohio 43041) comprising spaghnum peat moss, vermiculite, wetting agent and starter nutrients and treated with postemergence applications of test chemicals formulated in the same manner. Plants ranged in height from 2 to 18 cm (1- to 4-leaf stage) for postemergence treatments. Treated plants and controls were maintained in a greenhouse for 13 to 15 days, after which time all species were compared to controls and visually evaluated. Plant response ratings, summarized in Table D, are based on a scale of 0 to 100 where 0 is no effect and 100 is complete control. A dash (-) response means no test result.

[2] = tested on: blackgrass (Alopecurus myosuroides); assay: Test D pre-/postemergence plant response; conditions: Alopecurus myosuroides; for pest or weed control at 16 g/ha: 16 g ai/ha; for pest or weed control at 31 g/ha: 31 g ai/ha; for pest or weed control at 62 g/ha: 62 g ai/ha; for pest or weed control at 125 g/ha: 125 g ai/ha
From the text: as §1

[3] = tested on: ragweed (common ragweed, Ambrosia elatior); assay: Test D pre-/postemergence plant response; conditions: Ambrosia artemisiifolia; for pest or weed control at 31 g/ha: 31 g ai/ha; for pest or weed control at 62 g/ha: 62 g ai/ha; for pest or weed control at 125 g/ha: 125 g ai/ha
From the text: as §1

[4] = tested on: lambsquarters (Chenopodium album); assay: Test D pre-/postemergence plant response; conditions: Chenopodium album; for pest or weed control at 31 g/ha: 31 g ai/ha; for pest or weed control at 62 g/ha: 62 g ai/ha; for pest or weed control at 125 g/ha: 125 g ai/ha
From the text: as §1

[5] = tested on: galium (catchweed bedstraw, Galium aparine); assay: Test D pre-/postemergence plant response; conditions: Galium; for pest or weed control at 31 g/ha: 31 g ai/ha; for pest or weed control at 62 g/ha: 62 g ai/ha; for pest or weed control at 125 g/ha: 125 g ai/ha
From the text: as §1

[6] = tested on: barnyardgrass (Echinochloa crus-galli); assay: Test B pre-/postemergence plant response; conditions: for pest or weed control at 500 g/ha: 500 g ai/ha
How it was run: (§2)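 Visual injury scores on a 0–100 scale (100 = complete control) relative to untreated plants, taken about 10 days post-treatment in greenhouse. Treatments were a directed preemergence soil spray and a postemergence spray at one- to two-leaf stage, using surfactant-containing solvent formulation.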

[7] = tested on: giant foxtail (Setaria faberii); assay: Test B pre-/postemergence plant response; conditions: for pest or weed control at 500 g/ha: 500 g ai/ha
How it was run: as §2

[8] = tested on: pigweed (Amaranthus retroflexus); assay: Test B pre-/postemergence plant response; conditions: for pest or weed control at 500 g/ha: 500 g ai/ha
How it was run: as §2

[9] = tested on: wheat (Triticum aestivum); assay: Test B pre-/postemergence plant response; conditions: Triticum aestivum, post-emergence, 240 h, read-out: Plant response rating, Wheat
How it was run: as §2

corn (Zea mays) [10] = assay: Test B pre-/postemergence plant response; conditions: Zea mays, post-emergence, 240 h
How it was run: as §2

[11] = post-emergence, Postemergence, scale 0 to 100 (0 no effect, 100 complete control), read-out: Blackgrass plant response rating
[12] = post-emergence, Postemergence, scale 0 to 100, 0 no effect, 100 complete control, read-out: Plant response rating, Blackgrass
[13] = pre-emergence, Preemergence, scale 0 to 100 (0 no effect, 100 complete control), read-out: Plant response rating, Blackgrass
[14] = post-emergence, Postemergence, scale 0 to 100, 0 no effect, 100 complete control, read-out: Plant response rating, Ragweed
[15] = pre-emergence, Preemergence, scale 0 to 100 (0 no effect, 100 complete control), read-out: Plant response rating, Ragweed
[16] = post-emergence, Postemergence, scale 0 to 100, 0 no effect, 100 complete control, read-out: Plant response rating, Lambsquarters
[17] = pre-emergence, Preemergence, scale 0 to 100 (0 no effect, 100 complete control), read-out: Plant response rating, Lambsquarters
[18] = post-emergence, Postemergence, scale 0 to 100, 0 no effect, 100 complete control, read-out: Plant response rating, Galium
[19] = pre-emergence, Preemergence, scale 0 to 100 (0 no effect, 100 complete control), read-out: Plant response rating, Galium
[20] = Preemergence, 125 g ai/ha, 0 to 100 scale (0 no effect, 100 complete control)
[21] = 125 g ai/ha, postemergence, 0 to 100 scale, 0 no effect, 100 complete control
[22] = Postemergence, 500 g ai/ha, 0 to 100 scale (0 no effect, 100 complete control)

`Fc1cccc(Oc2ncc(Cl)cn2)c1-c1cc(C(F)(F)F)on1` [Compound 168, 5-chloro-2-[2-[5-(trifluoromethyl)-3-isoxazolyl]-3-fluorophenoxy]pyrimidine] gave a plant injury at 125 g/ha (corn (Zea mays) [1]; 125 g ai/ha, read-out: Plant response rating (scale 0 to 100), Corn) of 55%, a Corn plant response rating (crop injury, 0 = no effect, 100 = complete kill) at 16 g/ha (corn (Zea mays) [1]; 16 g ai/ha, scale 0 to 100 (0 no effect, 100 complete control)) of 0% and a Corn plant response rating (crop injury, 0 = no effect, 100 = complete kill) at 31 g/ha (corn (Zea mays) [1]; 31 g ai/ha, scale 0 to 100 (0 no effect, 100 complete control)) of 15%. The Corn plant response rating (crop injury, 0 = no effect, 100 = complete kill) at 62 g/ha (corn (Zea mays) [1]; 62 g ai/ha, scale 0 to 100 (0 no effect, 100 complete control)) was 25%, the pest or weed control at 16 g/ha [2, 11] was 10% and the pest or weed control at 31 g/ha [2, 11] was 15%. It also gave a pest or weed control at 62 g/ha [2, 12] of 15%, a pest or weed control at 125 g/ha [2, 12] of 20% and a pest or weed control at 125 g/ha ([2]; pre-emergence, Preemergence, read-out: Plant response rating (scale 0 to 100), Blackgrass) of 90%. For the same molecule, the pest or weed control at 16 g/ha [2, 13] was 85%, the pest or weed control at 31 g/ha [2, 13] was 90% and the pest or weed control at 62 g/ha [2, 13] was 90%. For the same molecule, the pest or weed control at 31 g/ha ([3]; post-emergence, Postemergence, scale 0 to 100 (0 no effect, 100 complete control), read-out: Ragweed plant response rating) was 50%, the pest or weed control at 62 g/ha [3, 14] was 55% and the pest or weed control at 125 g/ha [3, 14] was 55%. It also gave a pest or weed control at 125 g/ha ([3]; pre-emergence, Preemergence, read-out: Plant response rating (scale 0 to 100), Ragweed) of 100%, a pest or weed control at 16 g/ha ([3]; pre-emergence, Preemergence, 16 g ai/ha, scale 0 to 100 (0 no effect, 100 complete control), read-out: Plant response rating, Ragweed) of 35% and a pest or weed control at 31 g/ha [3, 15] of 45%. It also gave a pest or weed control at 62 g/ha [3, 15] of 100%, a pest or weed control at 31 g/ha ([4]; post-emergence, Postemergence, scale 0 to 100 (0 no effect, 100 complete control), read-out: Lambsquarters plant response rating) of 85% and a pest or weed control at 62 g/ha [4, 16] of 85%. It also gave a pest or weed control at 125 g/ha [4, 16] of 90%, a pest or weed control at 125 g/ha ([4]; pre-emergence, Preemergence, read-out: Plant response rating (scale 0 to 100), Lambsquarters) of 98% and a pest or weed control at 16 g/ha ([4]; pre-emergence, Preemergence, 16 g ai/ha, scale 0 to 100 (0 no effect, 100 complete control), read-out: Plant response rating, Lambsquarters) of 90%. For the same molecule, the pest or weed control at 31 g/ha [4, 17] was 100%, the pest or weed control at 62 g/ha [4, 17] was 100% and the pest or weed control at 31 g/ha ([5]; post-emergence, Postemergence, scale 0 to 100 (0 no effect, 100 complete control), read-out: Galium plant response rating) was 95%. The pest or weed control at 62 g/ha [5, 18] was 95%, the pest or weed control at 125 g/ha [5, 18] was 100% and the pest or weed control at 125 g/ha ([5]; pre-emergence, Preemergence, read-out: Plant response rating (scale 0 to 100), Galium) was 100%. For the same molecule, the pest or weed control at 16 g/ha ([5]; pre-emergence, Preemergence, 16 g ai/ha, scale 0 to 100 (0 no effect, 100 complete control), read-out: Plant response rating, Galium) was 100%, the pest or weed control at 31 g/ha [5, 19] was 100% and the pest or weed control at 62 g/ha [5, 19] was 100%. For the same molecule, the pest or weed control at 125 g/ha ([6]; Echinochloa crus-galli, post-emergence, 240 h, 125 g ai/ha, postemergence, 0 to 100 scale, 0 no effect, 100 complete control, read-out: Plant response rating, Barnyardgrass) was 100%, the pest or weed control at 500 g/ha ([6]; Echinochloa crus-galli, post-emergence, 240 h, Postemergence, 0 to 100 scale (0 no effect, 100 complete control), read-out: Plant response rating, Barnyardgrass) was 100% and the pest or weed control at 500 g/ha ([6]; Echinochloa crus-galli, pre-emergence, 240 h, Preemergence, 0 to 100 scale where 0 is no effect and 100 is complete control, read-out: Plant response rating, Barnyardgrass) was 100%. For the same molecule, the “Barnyardgrass plant response rating” value [6, 20] was 100, the “Foxtail, Giant plant response rating” value [7, 20] was 100 and the pest or weed control at 125 g/ha ([7]; Setaria faberi, post-emergence, 240 h, 125 g ai/ha, postemergence, 0 to 100 scale, 0 no effect, 100 complete control, read-out: Plant response rating, Foxtail, Giant) was 100%. The pest or weed control at 500 g/ha ([7]; Setaria faberi, post-emergence, 240 h, Postemergence, 0 to 100 scale (0 no effect, 100 complete control), read-out: Plant response rating, Foxtail, Giant) was 100%, the pest or weed control at 500 g/ha ([7]; Setaria faberi, pre-emergence, 240 h, Preemergence, 0 to 100 scale where 0 is no effect and 100 is complete control, read-out: Plant response rating, Foxtail, Giant) was 100% and the pest or weed control at 125 g/ha ([8]; Amaranthus retroflexus, post-emergence, 240 h, 125 g ai/ha, postemergence, 0 to 100 scale, 0 no effect, 100 complete control, read-out: Plant response rating, Pigweed) was 100%. For the same molecule, the pest or weed control at 500 g/ha ([8]; Amaranthus retroflexus, post-emergence, 240 h, Postemergence, 0 to 100 scale (0 no effect, 100 complete control), read-out: Plant response rating, Pigweed) was 100%, the pest or weed control at 500 g/ha ([8]; Amaranthus retroflexus, pre-emergence, 240 h, Preemergence, 0 to 100 scale where 0 is no effect and 100 is complete control, read-out: Plant response rating, Pigweed) was 100% and the “Pigweed plant response rating” value [8, 20] was 100. It also gave a plant injury at 125 g/ha [9, 21] of 100%, a plant injury at 500 g/ha [9, 22] of 100% and a Corn plant response rating (crop injury, 0 = no effect, 100 = complete kill) at 125 g/ha (corn (Zea mays) [10]; [21]) of 100%. It also gave a Corn plant response rating (crop injury, 0 = no effect, 100 = complete kill) at 500 g/ha (corn (Zea mays) [10]; [22]) of 100%.
